As usually defined, the AC50 is the midpoint of the concentration-response curve, whichever way the signal moves. As a reminder, the IC50 is the concentration that inhibits the measured activity by half.

Results on 35 compounds are retold here after ChEMBL document CHEMBL1201862, “PubChem BioAssay data set” (2004).

Molecules are shown by their SMILES. Calls of active or inactive are those of the source.

Targets include Cytochrome P450 3A4 (Homo sapiens, UniProt P08684); Cytochrome P450 2D6 (Homo sapiens, UniProt P10635); Cytochrome P450 2C9 (Homo sapiens, UniProt P11712).
Experiment [1] addresses T1, Zinc finger protein mex-5 (Caenorhabditis elegans, UniProt Q9XUB2).
T1 sequence (Q9XUB2 whole entry): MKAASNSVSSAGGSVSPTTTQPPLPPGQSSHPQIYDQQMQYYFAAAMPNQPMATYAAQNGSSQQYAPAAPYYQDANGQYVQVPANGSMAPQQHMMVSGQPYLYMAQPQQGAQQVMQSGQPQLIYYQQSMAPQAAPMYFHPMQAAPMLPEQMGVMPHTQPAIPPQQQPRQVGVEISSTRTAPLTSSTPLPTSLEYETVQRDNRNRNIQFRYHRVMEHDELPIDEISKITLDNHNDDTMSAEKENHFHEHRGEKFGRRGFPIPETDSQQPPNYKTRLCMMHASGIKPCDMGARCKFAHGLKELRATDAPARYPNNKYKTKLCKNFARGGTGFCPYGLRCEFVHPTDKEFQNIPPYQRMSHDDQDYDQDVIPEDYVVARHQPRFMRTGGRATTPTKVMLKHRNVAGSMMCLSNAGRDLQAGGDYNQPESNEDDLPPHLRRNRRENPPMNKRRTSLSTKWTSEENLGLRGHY
Put plainly: potency of MEX-5 RNA-binding blockers – biochemical, C. elegans, fluorescence polarization, dose response (AID 1960). (In fluorescence polarisation assays a small probe gives low polarisation when free and higher when bound to something large.)

For experiment [2], the target named is T2, Corticotropin-releasing factor receptor 2/Corticotropin-releasing factor-binding protein (Homo sapiens, UniProt P24387+Q13324).
T2 sequence (Q13324 whole entry): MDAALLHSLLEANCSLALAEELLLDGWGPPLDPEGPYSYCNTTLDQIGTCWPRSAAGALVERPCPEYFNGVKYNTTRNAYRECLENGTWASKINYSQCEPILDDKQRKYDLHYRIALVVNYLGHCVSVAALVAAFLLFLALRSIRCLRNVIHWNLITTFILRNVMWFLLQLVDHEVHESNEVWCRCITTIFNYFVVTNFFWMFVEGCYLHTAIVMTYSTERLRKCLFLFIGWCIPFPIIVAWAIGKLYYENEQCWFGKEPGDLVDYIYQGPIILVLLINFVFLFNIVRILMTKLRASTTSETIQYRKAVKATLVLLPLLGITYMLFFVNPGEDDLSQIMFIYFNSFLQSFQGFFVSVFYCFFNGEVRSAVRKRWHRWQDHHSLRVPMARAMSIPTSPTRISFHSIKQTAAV
T2 sequence (P24387 whole entry): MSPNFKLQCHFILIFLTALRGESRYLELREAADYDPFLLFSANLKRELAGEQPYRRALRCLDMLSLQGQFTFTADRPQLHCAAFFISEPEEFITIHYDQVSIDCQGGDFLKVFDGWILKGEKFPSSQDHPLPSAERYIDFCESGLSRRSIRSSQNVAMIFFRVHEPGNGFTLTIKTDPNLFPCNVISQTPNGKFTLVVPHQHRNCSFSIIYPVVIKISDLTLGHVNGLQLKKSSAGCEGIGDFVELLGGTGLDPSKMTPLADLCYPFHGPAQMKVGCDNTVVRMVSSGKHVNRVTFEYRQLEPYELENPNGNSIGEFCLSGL
Put plainly: activators of CRF receptor 2 with binding protein – uHTS hits, confirmation (AID 602473). Format: functional. As to conditions: read-out: EC50_Mean.

Experiment [3] addresses T3, RNA-binding protein pos-1 (Caenorhabditis elegans, UniProt G5EF15).
T3 sequence (G5EF15 whole entry): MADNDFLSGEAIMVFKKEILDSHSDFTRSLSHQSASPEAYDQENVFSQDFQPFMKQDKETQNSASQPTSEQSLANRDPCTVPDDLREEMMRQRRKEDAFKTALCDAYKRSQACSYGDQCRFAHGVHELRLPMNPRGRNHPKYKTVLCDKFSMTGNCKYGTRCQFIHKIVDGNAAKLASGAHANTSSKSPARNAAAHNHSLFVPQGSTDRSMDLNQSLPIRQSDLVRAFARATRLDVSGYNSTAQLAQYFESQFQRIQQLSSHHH
Put plainly: disruptors of C. elegans POS-1 RNA interaction – biochemical, fluorescence polarization, dose response (AID 1964).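 Further: purified POS-1 fused to maltose binding protein made in E. coli; potency of compounds blocking POS-1 binding to fluorescent RNA.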

Experiment [4] deals with T4, Fatty acid synthase (Homo sapiens, UniProt P49327). Put plainly: inhibition of human FAS-TE enzyme activity – biochemical, kinetic fluorescence intensity, dose response (AID 624326).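 Further: rate of fluorescence rise from hydrolysis of a fluorogenic O-methyl fluorescein ester substrate.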 Format: functional.
For experiment [5], the target named is T4, Fatty acid synthase. Kind of experiment: inhibition of human FAS-TE enzyme activity – biochemical, endpoint fluorescence intensity, uHTS hits, dose response (AID 624327).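 Further: fluorescence from hydrolysis of an O-methyl fluorescein acyl ester substrate by the enzyme.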 Format: functional.
For the next experiment, the target named is Large T antigen (Simian virus 40, UniProt P03070). Format: functional, Betapolyomavirus macacae.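 Further: Confirmatory-stage PubChem screen for compounds that inhibit SV40 T antigen.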
Experiment [6] has as its target T5, Rac GTPase-activating protein 1 (Homo sapiens, UniProt Q9H0H5).
T5 sequence (Q9H0H5 whole entry): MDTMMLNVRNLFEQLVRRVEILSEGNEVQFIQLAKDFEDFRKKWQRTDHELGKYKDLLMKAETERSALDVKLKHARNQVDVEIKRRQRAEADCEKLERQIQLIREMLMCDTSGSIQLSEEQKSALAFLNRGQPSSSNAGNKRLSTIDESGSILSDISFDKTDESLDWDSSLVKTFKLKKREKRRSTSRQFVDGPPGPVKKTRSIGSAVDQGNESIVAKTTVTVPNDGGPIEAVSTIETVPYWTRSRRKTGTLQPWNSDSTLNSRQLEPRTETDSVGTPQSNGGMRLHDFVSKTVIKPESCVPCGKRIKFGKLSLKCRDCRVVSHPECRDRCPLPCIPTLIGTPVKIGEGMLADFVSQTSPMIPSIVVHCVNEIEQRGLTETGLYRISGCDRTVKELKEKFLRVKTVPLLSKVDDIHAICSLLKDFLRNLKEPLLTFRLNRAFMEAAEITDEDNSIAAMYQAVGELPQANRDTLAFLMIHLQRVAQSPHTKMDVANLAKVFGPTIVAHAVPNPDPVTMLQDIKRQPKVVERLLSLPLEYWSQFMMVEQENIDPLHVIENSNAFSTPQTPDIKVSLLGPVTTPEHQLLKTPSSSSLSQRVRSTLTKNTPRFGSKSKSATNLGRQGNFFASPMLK
Put plainly: blockers of MgcRacGAP-driven Rac1 GTP hydrolysis – biochemical, ADP Hunter fluorescence, primary and confirmatory, confirmation (AID 624330). Format: functional.

The next experiment deals with Cytochrome P450 2C19 (Homo sapiens, UniProt P33261). Kind of experiment: Cytochrome panel assay with activity outcomes. Panel member name: p450-cyp2c19 Compounds with AC50 equal or less than 10 uM are considered active. Format: functional. As to conditions: read-out: AC50.
Experiment [7] can be described thus: non-specific 3'UTR reporter inhibition in Clone20-Shn3RL – cell-based, Renilla luciferase, cherry-picked, counter-screen for Shn3 inhibitor project, dose response (AID 624133). Format: functional. A general note: Counterscreens check selectivity or assay interference.
Experiment [8] can be described thus: reduction of Shn3 3'UTR-driven luciferase in osteoblasts – cell-based, Clone20 osteoblasts, firefly luciferase, cherry-picked, dose response (AID 624132).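 Further: firefly luciferase luminescence from reporter carrying the Shn3 3'UTR in osteoblasts.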 Format: functional.

Cytochrome P450 2D6, sequence (P10635 whole entry): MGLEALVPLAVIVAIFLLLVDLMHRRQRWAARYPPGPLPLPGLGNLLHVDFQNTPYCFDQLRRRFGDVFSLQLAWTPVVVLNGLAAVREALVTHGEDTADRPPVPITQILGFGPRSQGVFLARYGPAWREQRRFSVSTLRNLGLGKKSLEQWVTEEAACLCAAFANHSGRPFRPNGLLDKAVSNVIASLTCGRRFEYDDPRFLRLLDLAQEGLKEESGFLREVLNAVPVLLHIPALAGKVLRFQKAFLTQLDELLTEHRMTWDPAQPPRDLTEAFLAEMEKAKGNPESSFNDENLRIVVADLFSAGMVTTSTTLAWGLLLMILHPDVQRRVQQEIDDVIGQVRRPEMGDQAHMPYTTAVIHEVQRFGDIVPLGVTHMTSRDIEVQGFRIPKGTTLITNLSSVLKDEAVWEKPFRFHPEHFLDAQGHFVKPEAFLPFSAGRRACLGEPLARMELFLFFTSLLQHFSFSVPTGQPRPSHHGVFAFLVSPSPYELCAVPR
Cytochrome P450 2C19, sequence (P33261 whole entry): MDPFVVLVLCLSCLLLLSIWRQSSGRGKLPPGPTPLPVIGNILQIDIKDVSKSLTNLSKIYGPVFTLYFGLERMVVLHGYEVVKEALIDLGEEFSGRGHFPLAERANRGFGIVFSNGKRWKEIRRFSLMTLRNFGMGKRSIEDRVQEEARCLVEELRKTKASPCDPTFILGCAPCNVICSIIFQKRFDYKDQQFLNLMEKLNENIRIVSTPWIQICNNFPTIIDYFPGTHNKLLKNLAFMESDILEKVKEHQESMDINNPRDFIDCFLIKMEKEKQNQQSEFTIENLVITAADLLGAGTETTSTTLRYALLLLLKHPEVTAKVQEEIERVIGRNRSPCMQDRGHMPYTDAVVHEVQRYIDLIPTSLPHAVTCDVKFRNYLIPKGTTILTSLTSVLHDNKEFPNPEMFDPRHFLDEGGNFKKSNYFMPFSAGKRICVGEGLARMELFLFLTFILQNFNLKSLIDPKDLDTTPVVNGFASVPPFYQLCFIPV
T4 sequence (P49327 whole entry): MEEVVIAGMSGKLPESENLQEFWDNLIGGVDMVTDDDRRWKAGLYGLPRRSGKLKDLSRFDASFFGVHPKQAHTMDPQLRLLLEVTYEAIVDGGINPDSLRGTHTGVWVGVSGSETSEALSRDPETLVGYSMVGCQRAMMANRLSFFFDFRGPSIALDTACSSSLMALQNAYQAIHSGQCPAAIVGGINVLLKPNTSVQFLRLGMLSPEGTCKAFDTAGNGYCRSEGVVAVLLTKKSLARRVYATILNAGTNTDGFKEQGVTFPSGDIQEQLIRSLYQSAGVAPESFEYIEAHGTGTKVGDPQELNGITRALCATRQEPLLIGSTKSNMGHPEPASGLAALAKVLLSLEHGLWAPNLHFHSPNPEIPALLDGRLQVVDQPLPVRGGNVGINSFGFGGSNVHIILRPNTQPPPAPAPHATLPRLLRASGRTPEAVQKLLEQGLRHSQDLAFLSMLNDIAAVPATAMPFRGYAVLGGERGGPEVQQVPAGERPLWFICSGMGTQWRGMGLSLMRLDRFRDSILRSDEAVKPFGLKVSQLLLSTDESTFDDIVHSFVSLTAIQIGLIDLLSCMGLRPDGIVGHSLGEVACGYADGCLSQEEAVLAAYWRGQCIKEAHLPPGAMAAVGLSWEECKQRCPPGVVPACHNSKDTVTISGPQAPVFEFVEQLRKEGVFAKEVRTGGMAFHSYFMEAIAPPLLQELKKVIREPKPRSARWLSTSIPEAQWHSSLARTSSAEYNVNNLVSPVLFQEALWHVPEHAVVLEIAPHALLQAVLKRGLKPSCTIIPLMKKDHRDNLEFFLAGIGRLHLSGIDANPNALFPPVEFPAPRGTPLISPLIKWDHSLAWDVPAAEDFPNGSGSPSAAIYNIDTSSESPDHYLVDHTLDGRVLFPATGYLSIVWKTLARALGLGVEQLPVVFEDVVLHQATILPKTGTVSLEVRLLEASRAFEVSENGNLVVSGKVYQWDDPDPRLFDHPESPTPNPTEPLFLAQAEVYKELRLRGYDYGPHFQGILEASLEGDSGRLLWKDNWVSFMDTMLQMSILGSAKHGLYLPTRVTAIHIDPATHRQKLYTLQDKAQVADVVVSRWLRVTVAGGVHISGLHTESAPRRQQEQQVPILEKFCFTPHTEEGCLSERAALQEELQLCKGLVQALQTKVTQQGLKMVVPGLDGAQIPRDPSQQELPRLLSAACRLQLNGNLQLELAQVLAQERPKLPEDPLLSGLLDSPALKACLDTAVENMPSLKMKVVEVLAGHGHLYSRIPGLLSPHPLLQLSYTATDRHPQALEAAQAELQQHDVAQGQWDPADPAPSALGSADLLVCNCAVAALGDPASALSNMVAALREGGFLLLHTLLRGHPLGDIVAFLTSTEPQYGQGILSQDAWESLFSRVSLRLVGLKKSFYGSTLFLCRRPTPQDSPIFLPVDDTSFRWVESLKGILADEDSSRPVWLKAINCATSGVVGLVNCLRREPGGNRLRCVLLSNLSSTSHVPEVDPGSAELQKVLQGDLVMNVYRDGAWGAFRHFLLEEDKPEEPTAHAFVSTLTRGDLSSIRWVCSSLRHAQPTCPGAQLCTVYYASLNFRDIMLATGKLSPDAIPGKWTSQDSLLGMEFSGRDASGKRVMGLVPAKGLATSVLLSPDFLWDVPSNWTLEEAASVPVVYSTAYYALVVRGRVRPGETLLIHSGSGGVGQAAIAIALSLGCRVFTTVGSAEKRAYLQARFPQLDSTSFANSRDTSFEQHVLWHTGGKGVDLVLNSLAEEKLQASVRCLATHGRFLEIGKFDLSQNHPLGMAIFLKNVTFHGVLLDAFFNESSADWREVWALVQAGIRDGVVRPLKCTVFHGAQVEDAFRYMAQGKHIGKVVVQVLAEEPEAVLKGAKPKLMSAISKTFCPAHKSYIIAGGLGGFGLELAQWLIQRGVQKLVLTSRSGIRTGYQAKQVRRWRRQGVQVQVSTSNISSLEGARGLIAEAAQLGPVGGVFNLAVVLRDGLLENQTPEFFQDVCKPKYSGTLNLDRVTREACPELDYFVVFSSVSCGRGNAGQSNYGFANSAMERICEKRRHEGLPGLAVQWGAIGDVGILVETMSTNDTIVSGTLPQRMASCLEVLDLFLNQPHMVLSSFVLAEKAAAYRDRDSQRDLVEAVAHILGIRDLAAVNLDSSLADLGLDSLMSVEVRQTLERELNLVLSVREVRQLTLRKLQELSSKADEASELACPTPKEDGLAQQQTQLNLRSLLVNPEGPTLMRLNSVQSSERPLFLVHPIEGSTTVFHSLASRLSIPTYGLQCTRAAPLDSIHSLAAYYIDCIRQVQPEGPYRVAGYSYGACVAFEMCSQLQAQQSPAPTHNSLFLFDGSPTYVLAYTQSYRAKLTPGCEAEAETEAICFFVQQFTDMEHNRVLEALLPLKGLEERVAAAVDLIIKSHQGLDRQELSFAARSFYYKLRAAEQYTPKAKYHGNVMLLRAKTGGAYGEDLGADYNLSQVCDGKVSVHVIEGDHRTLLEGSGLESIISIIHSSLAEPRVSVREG
Large T antigen, sequence (P03070 whole entry): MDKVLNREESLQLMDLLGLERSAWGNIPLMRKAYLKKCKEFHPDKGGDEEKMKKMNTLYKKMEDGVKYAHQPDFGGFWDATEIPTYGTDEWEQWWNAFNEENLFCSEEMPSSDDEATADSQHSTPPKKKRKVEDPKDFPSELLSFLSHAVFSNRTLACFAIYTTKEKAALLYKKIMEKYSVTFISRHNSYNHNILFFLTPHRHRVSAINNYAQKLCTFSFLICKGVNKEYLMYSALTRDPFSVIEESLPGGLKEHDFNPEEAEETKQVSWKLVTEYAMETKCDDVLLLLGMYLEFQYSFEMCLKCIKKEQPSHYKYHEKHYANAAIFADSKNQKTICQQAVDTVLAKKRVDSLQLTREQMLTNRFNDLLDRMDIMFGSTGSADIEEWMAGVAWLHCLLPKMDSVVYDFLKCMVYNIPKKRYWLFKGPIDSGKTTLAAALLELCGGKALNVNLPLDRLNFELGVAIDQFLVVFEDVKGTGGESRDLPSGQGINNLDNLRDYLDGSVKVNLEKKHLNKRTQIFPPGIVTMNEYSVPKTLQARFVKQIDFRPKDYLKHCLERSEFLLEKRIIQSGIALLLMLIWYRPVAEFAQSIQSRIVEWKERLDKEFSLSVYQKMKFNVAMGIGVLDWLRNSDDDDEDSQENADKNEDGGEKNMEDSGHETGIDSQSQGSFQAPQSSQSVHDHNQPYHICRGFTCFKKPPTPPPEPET
Cytochrome P450 3A4, sequence (P08684 whole entry): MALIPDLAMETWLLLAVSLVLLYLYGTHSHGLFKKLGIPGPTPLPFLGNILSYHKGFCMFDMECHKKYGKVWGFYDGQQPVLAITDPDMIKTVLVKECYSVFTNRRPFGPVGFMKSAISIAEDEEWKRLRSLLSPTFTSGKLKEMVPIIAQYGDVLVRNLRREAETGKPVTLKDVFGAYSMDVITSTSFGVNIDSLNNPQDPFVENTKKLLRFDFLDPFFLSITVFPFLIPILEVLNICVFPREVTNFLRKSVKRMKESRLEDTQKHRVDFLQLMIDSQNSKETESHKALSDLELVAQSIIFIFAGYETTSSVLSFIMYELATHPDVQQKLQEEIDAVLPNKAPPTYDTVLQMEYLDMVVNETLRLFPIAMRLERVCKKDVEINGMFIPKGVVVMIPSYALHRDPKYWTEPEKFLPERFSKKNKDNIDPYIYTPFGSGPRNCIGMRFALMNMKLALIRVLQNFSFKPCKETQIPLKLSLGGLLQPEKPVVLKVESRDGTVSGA

In the case of `O=C(O)C(=O)/C(=C\c1cccc2ccccc12)c1ccc2ccccc2n1`, the EC50 in experiment [1] is 34.2 µM (active); in [2], 7.6 µM (active); in experiment [3], 164 µM (active).

`Cc1c(N2CCCC2)cc2c(c1NC(=O)c1ccccc1Cl)C(C)(C)CC2(C)C`: the values for the AC50 at Cytochrome P450 3A4 and at Cytochrome P450 2D6 were 0.631 µM (inconclusive) and 3.16 µM (inconclusive), respectively.

With `Cc1cc2c3c(c1C)C1(C(=O)N3C(C)(C)CC2C)C(C#N)=C(N)OC2=C1C(=O)CC(C)(C)C2` (centres undefined), the EC50 in experiment [1] and in experiment [3] was > 300 µM (not active) throughout.

Consider `COc1ccc([N+](=O)[O-])cc1NC(=O)c1ccc(N(Cc2ccccc2C)S(C)(=O)=O)cc1`, for which the IC50 is 6.91 µM (active) at Fatty acid synthase [4] and 9.88 µM (active) on Fatty acid synthase [5].

Turning to `COc1ccc(NC2CCCN(C(=O)CCCn3cncn3)C2)cc1` (centres undefined), the IC50 at Large T antigen was 52.6 µM (active).

With `CCOc1ccc(NC(=O)CN(c2ccc([N+](=O)[O-])cc2)S(=O)(=O)c2ccccc2)cc1`, the values for the IC50 at Fatty acid synthase [4] and at Fatty acid synthase [5] were 7.65 µM (active) and 10.5 µM (active), respectively.

Consider `CCOc1cc(/C=N/Nc2ncnc(Cl)c2N)ccc1O`, for which the IC50 on Large T antigen was 6.12 µM (active); in [6], 25.2 µM (active).

Take `Fc1c(F)c(F)c(N/N=C/c2c[nH]c3ccccc23)c(F)c1F`: the half-maximal inhibitory concentration (IC50) was 12.4 µM (active) on Fatty acid synthase [4] and 11.5 µM (active) on Fatty acid synthase [5].

As for `O=C(Nc1ccc(O)cc1)c1ccc2c(c1)C(=O)N(N1C(=O)c3ccccc3C1=O)C2=O`, the IC50 on Large T antigen was 21.4 µM (active).

As to `O=C(Cc1ccc(S(=O)(=O)N2CCOCC2)s1)N1CCN(S(=O)(=O)c2ccccc2[N+](=O)[O-])CC1`, the results for the IC50 on Fatty acid synthase [4] and at Fatty acid synthase [5] were 3.36 µM (active) and 0.241 µM (active), respectively.

Take `CCN(CC)C(=O)C1=C(C)N(Cc2ccc(F)cc2)C(=O)C(CC(=O)NC(c2ccccc2)c2ccccc2)C1` (centres undefined): the IC50 on Fatty acid synthase [4] is 7.98 µM (active); at Fatty acid synthase [5] it was 9.6 µM (active).

As to `CCCCC(=O)NCCc1c(Cc2ccccc2)[nH]c2ccccc12`, the AC50 at Cytochrome P450 2C19 was 20 µM (inconclusive); on Cytochrome P450 2D6, 39.8 µM (inconclusive).

Consider `COc1cc(/C=C2/C(C)=C(C#N)c3nc(N)c(C#N)c(C)c32)ccc1OCC(=O)O`, for which the half-inhibitory concentration (IC50) at Large T antigen was 89.5 µM (active).

Consider `COc1cc(OC)c(C2CC(=O)N3CN(c4ccccc4C)CSC3=C2C#N)cc1OC` (centres undefined), for which the IC50 on Large T antigen is 54.8 µM (active).

As to `Cc1cc(C)cc(NS(=O)(=O)c2ccc3ncc(C(=O)N4CCc5ccccc54)c(O)c3c2)c1`, the EC50 in [2] is > 53 µM (inactive).

With `CCOC(=O)C1CCN(C(=O)c2ccc(OCC(=O)Nc3cccc(C(F)(F)F)c3)c(OC)c2)CC1`, the AC50 in [7] is 4.69 µM (active); in experiment [8] it was 1.75 µM (active).

Turning to `CCN1C(=O)[C@H]2[C@@H](c3ccc(C)cc3)N3C(=O)N(c4cccc(Cl)c4)C(=O)[C@@]3(Cc3ccc(Cl)cc3)[C@H]2C1=O`, the IC50 at Fatty acid synthase [4] is 16.1 µM (active); on Fatty acid synthase [5] it was 12 µM (active).

Consider `COc1cc(C=C2C(=O)NC(=O)NC2=O)ccc1O`, for which, on Large T antigen, the IC50 was 28 µM (active).

Consider `C#CCOC(=O)NC(/C=C/CCCC)c1ccccc1` (centres undefined), for which the AC50 at Cytochrome P450 2C19 is 25.1 µM (inconclusive); on Cytochrome P450 2D6, 20 µM (inconclusive).

Take `O=C1CC(=O)N(Cc2ccco2)C(=S)N1`: the IC50 on Large T antigen is 55.5 µM (active).

`COc1cccc(C(=O)NC2CC3CCCC(C2)N3CC(=O)Nc2ccc(N(C)C)cc2)c1` (centres undefined): the IC50 on Large T antigen was 6.24 µM (active).

Turning to `FC(F)(F)c1nc(N2CCCC2)ncc1-c1nnnn1-c1ccccc1`, the AC50 on Cytochrome P450 2D6 was 12.6 µM (inconclusive).

As to `C=CCN(CC=C)C(=O)C(=O)c1cc(C)n(-c2ccc([N+](=O)[O-])cc2)c1C`, the half-maximal activity concentration (AC50) at Cytochrome P450 2C9 was 15.8 µM (inconclusive); on Cytochrome P450 2D6, 3.98 µM (inconclusive).

For the compound `Sc1nnc(COc2ccccc2)n1/N=C/C=C/c1ccco1`, on Large T antigen, the IC50 was > 100 µM (active).

On to `CCOC(=O)CC(=O)CSc1n[nH]c2c3ccccc3nc-2n1`, for which the AC50 at Cytochrome P450 3A4 was 2.51 µM (inconclusive); on Cytochrome P450 2D6, 3.55 µM (inconclusive).

`O=C(NCc1ccc2c(c1)OCO2)c1cc([N+](=O)[O-])ccc1N1CCCCC1`: the half-maximal inhibitory concentration (IC50) on Fatty acid synthase [4] is 5.03 µM (active); at Fatty acid synthase [5], 10.5 µM (active).

Take `CC(C)(C)NS(=O)(=O)c1ccc(NC(=O)NC2CCCCC2)cc1`: the AC50 was 25.1 µM (inconclusive) at Cytochrome P450 2C19 and 17.8 µM (inconclusive) at Cytochrome P450 2D6.

As to `Cc1cc(/C=C2\C(=O)NC(=O)N(Cc3ccco3)C2=O)c(C)n1-c1ccc(C(=O)O)cc1`, the EC50 in experiment [1] was > 300 µM (inconclusive).

Regarding `N#CC(C#N)=Cc1ccc(-c2ccccc2)o1`, the EC50 in [1] was 22.5 µM (inconclusive); in [3] it was 6.78 µM (inconclusive).

Consider `CCC(C)N1C(=O)/C(=C\NNc2nc3c(c(=O)n(C)c(=O)n3C)n2C)C(=O)NC1=S` (centres undefined), for which the values for the EC50 in [1] and in experiment [3] were 38.6 µM (active) and > 300 µM (not active), respectively.

Consider `CC1CCCN(c2ccc(N)cc2C(N)=O)C1` (centres undefined), for which the half-inhibitory concentration (IC50) on Large T antigen is 44.6 µM (active).

In the case of `CN1C(=O)/C(=C\c2ccc(N3CCCCC3)o2)C(=O)NC1=S`, the EC50 in [1] and in [3] was > 300 µM (not active) each time.

Turning to `CNc1ncnc2ccc(-c3cccc(NS(C)(=O)=O)c3)cc12`, the AC50 on Cytochrome P450 2C19 is 20 µM (inconclusive); on Cytochrome P450 2D6 it was 39.8 µM (inconclusive).

In the case of `O=C(CSCc1c(Cl)cccc1Cl)NCC1CCCO1` (centres undefined), the EC50 in [1] and in [3] was > 300 µM (not active) each time.

With `CCCSc1nnc2nc3c(nn12)c1ccccc1n3C`, the EC50 is 76.6 µM (active) in experiment [1] and > 300 µM (not active) in experiment [3].
